Measured values reported in patent US9006440B2, “Furopyridine derivatives” (Merck Patent GmbH, priority 2010, dated 2015).

What was measured:
Syk = target: T1, Syk (Homo sapiens, UniProt P43405); assay: Syk enzyme assay (SYK flash plate assay / Caliper mobility shift); type: biochemical
T1 construct: purchased BPS Bioscience, CA, USA
In short: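 Flashplate format: 2.5 nM SYK, 400 nM biotinylated peptide, 10 μM ATP with 33P-ATP, pH 7.5, 1 h at 30 °C; radioactivity read, staurosporine background. Caliper format: 90 min at 25 °C, mobility-shift read of substrate-to-product conversion; IC50 from dose-response curve.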

[1] = test system: BLNK phosphorylation in Ramos cells; assay: BCR crosslinking-induced BLNK phosphorylation (BLNK cell assay); type: cell-based; conditions: Homo sapiens
Protocol: 1. BCR Crosslinking-Induced BLNK Phosphorylation
Ramos cells incubated overnight in IMDM medium containing 5% FCS were resuspended in IMDM medium without serum (3.3×10^6 cells/ml). 90 μl of cell suspension (300′000 cells) were incubated with 10 μl of SYK inhibitors (in 3% DMSO) for 20 minutes at 37° C., in 96 well plates. After preincubation with inhibitors, cells were activated with 10 μg/ml of goat antihuman anti-IgM for 10 minutes at 37° C. After stimulation, cells were fixed by addition of 80 μl of 4% paraformaldehyde followed by a 10 minutes incubation at RT and […] in 0.1% Triton X-100 in PBS. BLNK phosphorylation was detected by flow cytometry after staining of the cells with anti-BLNK-pY84-PE antibodies from BD pharmingen, for 45 minutes at RT.
BLNK phosphorylation in CD19^+ peripheral blood mononuclear cells (PBMC) isolated from buffy coats of healthy volunteers was performed using the same protocol and staining the cells with a mixture of anti-BLNK-pY84-PE, anti CD-19 PerCp and Anti-IgM APC antibodies from BD Pharmingen.

Zap70 = target: T2, Zap70 (Homo sapiens, UniProt P43403); assay: ZAP-70 enzymatic assay (Caliper LifeSciences technology); type: biochemical
T2 construct: purchased BPS Bioscience, CA, USA
T2 sequence (P43403 1-619): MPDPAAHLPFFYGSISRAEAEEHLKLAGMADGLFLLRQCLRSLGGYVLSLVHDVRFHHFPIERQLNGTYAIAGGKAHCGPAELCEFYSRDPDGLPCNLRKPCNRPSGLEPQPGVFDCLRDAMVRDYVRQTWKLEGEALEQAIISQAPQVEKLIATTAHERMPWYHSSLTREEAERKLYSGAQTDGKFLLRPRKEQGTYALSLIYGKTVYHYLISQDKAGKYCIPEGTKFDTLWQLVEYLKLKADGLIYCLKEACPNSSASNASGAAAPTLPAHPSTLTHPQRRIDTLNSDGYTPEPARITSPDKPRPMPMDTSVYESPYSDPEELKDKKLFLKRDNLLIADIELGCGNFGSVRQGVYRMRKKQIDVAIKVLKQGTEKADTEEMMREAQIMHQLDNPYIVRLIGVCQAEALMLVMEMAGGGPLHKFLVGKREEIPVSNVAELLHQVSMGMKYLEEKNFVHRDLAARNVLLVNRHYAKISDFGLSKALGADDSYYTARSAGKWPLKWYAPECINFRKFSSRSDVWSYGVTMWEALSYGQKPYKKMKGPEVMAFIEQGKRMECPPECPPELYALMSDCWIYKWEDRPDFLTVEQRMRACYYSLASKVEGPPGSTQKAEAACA
Protocol: (§1) The assays described here are performed on the Caliper Life Sciences LC3000 system This technology provides data on enzyme activity via measurement of the relative amounts of phosphorylated or unphosphorylated fluorescently labelled substrate peptide at the end of an enzymatic reaction. These different states of peptide are resolved by applying a potential difference across the sample. The presence of the charged phosphate group on the product (as opposed to the substrate) causes a different peptide mobility between the two peptides. This is visualized by excitation of the fluorescent label on the substrate and product peptides and represented as peaks within the analysis software.
(§2) In order to measure inhibitor activity of kinase inhibitors on this technology, a TTP Mosquito liquid handling instrument is used to place 0.25 ul of the appropriate concentration of inhibitor in 100% DMSO (for a dose response curve calculation) into each well of a 384-well plate. To this reaction components are added to a final volume of 25 ul. The table below indicates the sequences and concentrations for the assays described in this report. Standard components are 1 mM DTT (Sigma, D0632), 1 mM MgCl2 (Sigma, M1028), 100 mM HEPES pH 7.5 (Calbiochem, 391338), 0.015% Brij-35 (Sigma, B4184).
(§3) The reaction is incubated for 90 min at 25 C, and then stopped by the addition of 70 ul of Stop buffer (100 mM HEPES pH 7.5, 0.015% Brij-35, 10 mM EDTA (Sigma, E7889)).
(§4) The plate is read on a Caliper LC 3000 in an Off-Chip mobility shift assay format, on a 12-sipper chip. Unphosphorylated substrate and phosphorylated product peptide resolve as separate peaks allowing direct measurement of percentage of conversion of substrate to product. The percent conversion can be plotted against concentration of inhibitor to produce a sigmoidal dose response curve, from which an IC50 can be calculated using GeneData Condoseo or a similar product.

KDR = target: T3, KDR (Homo sapiens, UniProt P35968); assay: KDR enzymatic assay (Caliper LifeSciences technology); type: biochemical
T3 construct: purchased BPS Bioscience, CA, USA
In short: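 Off-chip mobility-shift assay measuring conversion of a fluorescently labelled peptide substrate, in 100 mM HEPES pH 7.5, 1 mM DTT, 1 mM MgCl2 and 0.015% Brij-35. Reactions ran 90 min at 25 C and were stopped with EDTA. IC50s were derived from percent-conversion dose-response curves.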

SRC = target: T4, SRC (Homo sapiens, UniProt P12931); assay: Src enzymatic assay (Caliper LifeSciences technology); type: biochemical
T4 construct: purchased Carna Bioscience, Kobe, Japan
Protocol: as §1, §2, §3, §4

BTK = target: T5, BTK (Homo sapiens, UniProt Q06187); assay: BTK enzymatic assay (Caliper LifeSciences technology); type: biochemical
T5 construct: purchased Carna Bioscience, Kobe, Japan
Protocol: as §1, §2, §3, §4

[2] = test system: RA Phase II studies in humans; conditions: cited from earlier work
murine model of RA = conditions: cited from earlier work

T5 sequence (Q06187 whole entry): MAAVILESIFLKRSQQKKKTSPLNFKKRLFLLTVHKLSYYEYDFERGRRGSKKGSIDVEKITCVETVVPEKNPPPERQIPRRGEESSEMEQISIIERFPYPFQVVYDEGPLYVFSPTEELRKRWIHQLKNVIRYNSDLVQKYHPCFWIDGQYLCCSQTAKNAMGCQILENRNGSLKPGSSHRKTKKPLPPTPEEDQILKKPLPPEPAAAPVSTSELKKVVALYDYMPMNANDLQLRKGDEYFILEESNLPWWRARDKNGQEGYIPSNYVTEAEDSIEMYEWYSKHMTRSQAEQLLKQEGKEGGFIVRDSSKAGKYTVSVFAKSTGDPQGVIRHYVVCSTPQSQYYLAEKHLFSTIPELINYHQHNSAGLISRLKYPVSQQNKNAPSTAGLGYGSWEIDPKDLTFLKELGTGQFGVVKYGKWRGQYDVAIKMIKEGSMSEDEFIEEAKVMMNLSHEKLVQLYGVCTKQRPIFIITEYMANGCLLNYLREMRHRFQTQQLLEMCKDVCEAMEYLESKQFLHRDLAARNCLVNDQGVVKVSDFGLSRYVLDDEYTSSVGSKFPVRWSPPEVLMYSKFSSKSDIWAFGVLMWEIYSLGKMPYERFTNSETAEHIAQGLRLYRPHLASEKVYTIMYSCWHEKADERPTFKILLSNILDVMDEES
T4 sequence (P12931 whole entry): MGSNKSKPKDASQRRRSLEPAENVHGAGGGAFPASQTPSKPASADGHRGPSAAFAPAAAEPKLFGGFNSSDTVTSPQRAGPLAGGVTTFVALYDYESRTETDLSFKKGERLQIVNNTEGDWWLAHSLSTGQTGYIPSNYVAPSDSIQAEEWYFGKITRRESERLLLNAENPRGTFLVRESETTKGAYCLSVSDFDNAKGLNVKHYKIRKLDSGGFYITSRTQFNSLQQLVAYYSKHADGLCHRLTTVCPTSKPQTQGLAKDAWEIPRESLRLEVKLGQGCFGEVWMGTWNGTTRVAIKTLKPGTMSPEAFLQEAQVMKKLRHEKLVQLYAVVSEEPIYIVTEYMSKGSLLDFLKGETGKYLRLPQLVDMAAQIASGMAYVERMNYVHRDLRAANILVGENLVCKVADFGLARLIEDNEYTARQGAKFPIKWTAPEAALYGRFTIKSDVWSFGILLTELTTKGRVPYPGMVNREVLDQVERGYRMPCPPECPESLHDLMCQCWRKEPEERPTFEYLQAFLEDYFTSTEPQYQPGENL
T3 sequence (P35968 20-1356): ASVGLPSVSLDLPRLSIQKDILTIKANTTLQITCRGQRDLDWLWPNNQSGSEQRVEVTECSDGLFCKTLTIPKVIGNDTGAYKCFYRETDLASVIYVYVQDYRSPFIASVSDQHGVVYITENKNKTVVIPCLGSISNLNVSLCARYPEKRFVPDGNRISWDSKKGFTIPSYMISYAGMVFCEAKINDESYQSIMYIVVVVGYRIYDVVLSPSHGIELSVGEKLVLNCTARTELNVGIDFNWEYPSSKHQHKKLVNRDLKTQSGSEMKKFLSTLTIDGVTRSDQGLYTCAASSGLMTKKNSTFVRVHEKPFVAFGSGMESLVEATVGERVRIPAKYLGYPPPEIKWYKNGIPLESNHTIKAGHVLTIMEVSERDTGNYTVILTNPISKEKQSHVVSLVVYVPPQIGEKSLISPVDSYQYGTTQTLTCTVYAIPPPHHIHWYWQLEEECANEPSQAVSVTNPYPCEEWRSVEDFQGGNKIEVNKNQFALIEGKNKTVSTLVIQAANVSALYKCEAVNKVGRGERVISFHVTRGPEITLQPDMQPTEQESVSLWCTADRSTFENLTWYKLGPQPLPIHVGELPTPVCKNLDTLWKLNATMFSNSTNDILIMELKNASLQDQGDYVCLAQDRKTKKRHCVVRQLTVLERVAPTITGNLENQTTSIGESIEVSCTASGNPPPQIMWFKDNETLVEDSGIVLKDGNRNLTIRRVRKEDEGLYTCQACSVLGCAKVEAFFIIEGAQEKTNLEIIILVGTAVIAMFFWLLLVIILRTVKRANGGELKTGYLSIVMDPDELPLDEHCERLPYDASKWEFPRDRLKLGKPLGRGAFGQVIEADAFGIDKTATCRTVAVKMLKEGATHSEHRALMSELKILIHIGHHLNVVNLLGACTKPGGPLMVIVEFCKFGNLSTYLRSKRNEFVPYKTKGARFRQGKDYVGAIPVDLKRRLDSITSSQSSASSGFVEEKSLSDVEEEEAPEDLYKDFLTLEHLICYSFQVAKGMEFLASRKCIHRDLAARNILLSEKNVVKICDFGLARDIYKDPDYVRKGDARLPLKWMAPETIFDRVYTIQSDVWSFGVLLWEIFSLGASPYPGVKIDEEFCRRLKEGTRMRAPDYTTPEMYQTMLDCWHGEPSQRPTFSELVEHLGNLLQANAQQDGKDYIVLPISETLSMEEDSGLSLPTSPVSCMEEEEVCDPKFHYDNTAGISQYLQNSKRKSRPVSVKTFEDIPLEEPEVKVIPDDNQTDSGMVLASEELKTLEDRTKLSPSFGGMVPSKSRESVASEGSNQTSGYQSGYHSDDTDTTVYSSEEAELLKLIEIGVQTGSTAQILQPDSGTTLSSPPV

IC50 (Syk)	IC50 (Zap70)	IC50 (KDR)	IC50 (SRC)	Compound	further results
< 0.3 µM				COc1cc(-c2cc3nccc(-c4ccccc4)c3o2)cc(OC)c1OC [Compound A5, 7-Phenyl-2-(3,4,5-trimethoxy-phenyl)-furo[3,2-b]pyridine]	IC50 [1]: 3 to 50 µM
0.3 to 3 µM	3 to 50 µM	3 to 50 µM	3 to 50 µM	COc1cc(-c2cc3nccc(-c4c[nH]c5ccccc45)c3o2)cc(OC)c1OC [Compound A25, 7-(1H-Indol-3-yl)-2-(3,4,5-trimethoxy-phenyl)-furo[3,2-b]pyridine]	
< 0.3 µM	0.3 to 3 µM	3 to 50 µM	3 to 50 µM	COc1cc(-c2cc3nccc(-c4ccc(C(=O)O)cc4)c3o2)cc(OC)c1OC [Compound A42, 4-[2-(3,4,5-Trimethoxy-phenyl)-furo[3,2-b]pyridin-7-yl]-benzoic acid]	
< 0.3 µM	3 to 50 µM	3 to 50 µM	0.3 to 3 µM	COc1cc(-c2cc3nccc(-c4cccc(C(=O)NC5CCCCC5N)c4)c3o2)cc(OC)c1OC (stereo not shown) [Compound A45, N-(2-Amino-cyclohexyl)-3-[2-(3,4,5-trimethoxy-phenyl)-furo[3,2-b]pyridin-7-yl]-benzamide]	
< 0.3 µM	0.3 to 3 µM	3 to 50 µM		COc1cc(-c2cc3nccc(-c4cccc(N)c4)c3o2)cc(OC)c1OC [Compound A55, 3-[2-(3,4,5-Trimethoxy-phenyl)-furo[3,2-b]pyridin-7-yl]-phenylamine]	
< 0.3 µM	0.3 to 3 µM	0.3 to 3 µM		COc1cc(-c2cc3nccc(-c4ccc(N)cc4)c3o2)cc(OC)c1OC [Compound A56, 4-[2-(3,4,5-Trimethoxy-phenyl)-furo[3,2-b]pyridin-7-yl]-phenylamine]	
0.3 to 3 µM	3 to 50 µM	0.3 to 3 µM	3 to 50 µM	COc1cc(-c2cc3nccc(Nc4ccc5cn[nH]c5c4)c3o2)cc(OC)c1OC [Compound B15]	IC50 (BTK): 3 to 50 µM
< 0.3 µM		< 0.3 µM	< 0.3 µM	COc1cc(-c2cc3nccc(Nc4ccc5[nH]ccc5c4C)c3o2)cc(OC)c1OC [Compound B22]	IC50 (BTK): 0.3 to 3 µM; IC50 [1]: 3 to 50 µM
< 0.3 µM		< 0.3 µM	< 0.3 µM	COc1cc(-c2cc3nccc(Nc4ccc5[nH]ccc5c4)c3o2)cc(OC)c1OC [Compound B30]	IC50 (BTK): 0.3 to 3 µM; IC50 [1]: 3 to 50 µM
0.3 to 3 µM	< 0.3 µM	< 0.3 µM		Cc1c(Nc2ccnc3cc(-c4ccc(CO)cc4)oc23)ccc2[nH]ccc12 [Compound B61, {4-[7-(4-Methyl-1H-indol-5-ylamino)-furo[3,2-b]pyridin-2-yl]-phenyl}-methanol]	
< 0.3 µM	3 to 50 µM	3 to 50 µM		COc1cc(-c2cc3nccc(-c4ccc5c(c4)NC(=O)C5)c3o2)cc(OC)c1OC [Compound B71, 6-(2-(3,4,5-Trimethoxyphenyl)furo[3,2-b]pyridin-7-yl)indolin-2-one]	IC50 [1]: 3 to 50 µM
0.3 to 3 µM				COc1cc(-c2cc3nccc(-c4ccc5[nH]ccc5c4)c3o2)cc(OC)c1OC [Compound B74, 7-(1H-Indol-5-yl)-2-(3,4,5-trimethoxyphenyl)furo[3,2-b]pyridine]	IC50 (BTK): 3 to 50 µM; IC50 [1]: 0.3 to 3 µM
< 0.3 µM	3 to 50 µM	3 to 50 µM	0.3 to 3 µM	COc1cc(-c2cc3nccc(-c4c(OC)cccc4OC)c3o2)cc(OC)c1OC [Compound C2]	
< 0.3 µM	3 to 50 µM	0.3 to 3 µM		COc1cc(-c2cc3nccc(-c4cccc(C(=O)NCc5n[nH]c(=O)[nH]5)c4)c3o2)cc(OC)c1OC [Compound C12]	
< 0.3 µM	0.3 to 3 µM	0.3 to 3 µM	0.3 to 3 µM	COc1cc(-c2cc3nccc(-c4cnn(C)c4)c3o2)ccc1O [Compound C26]	
< 0.3 µM	3 to 50 µM	3 to 50 µM		COc1cc(-c2cc3nccc(-c4ccc(CO)nc4)c3o2)cc(OC)c1OC [Compound C27]	
< 0.3 µM	3 to 50 µM	0.3 to 3 µM	3 to 50 µM	Cn1cc(-c2ccnc3cc(-c4cccc(N)c4)oc23)cn1 [Compound C29]	
0.3 to 3 µM	3 to 50 µM	0.3 to 3 µM		COc1ccc(-c2cc3nccc(-c4ccccc4)c3o2)cc1NC(=O)[C@@H]1CCCN1 [Compound C30]	
< 0.3 µM	3 to 50 µM	3 to 50 µM		COc1cc(NC(=O)[C@@H]2C[C@@H](O)CN2)cc(-c2cc3nccc(-c4ccccc4)c3o2)c1 [Compound C46]	
< 0.3 µM	3 to 50 µM	0.3 to 3 µM	3 to 50 µM	COc1cc(-c2cc3nccc(-c4ccc5[nH]cnc5c4)c3o2)cc(OC)c1OC [Compound C60]	
0.3 to 3 µM	3 to 50 µM	0.3 to 3 µM		COCC(O)Cn1cc(-c2ccnc3cc(-c4cc(OC)c(OC)c(OC)c4)oc23)cn1 (stereo not shown) [Compound C66]	
< 0.3 µM	0.3 to 3 µM	0.3 to 3 µM		COc1cc(-c2cc3nccc(-c4ccc5[nH]nnc5c4)c3o2)cc(OC)c1OC [Compound C70]	
< 0.3 µM	3 to 50 µM	< 0.3 µM	0.3 to 3 µM	COc1cc(-c2cc3nccc(-c4cn[nH]c4)c3o2)cc(OC)c1OC [Compound C72]	IC50 (BTK): 3 to 50 µM
< 0.3 µM	0.3 to 3 µM	< 0.3 µM	0.3 to 3 µM	COc1cc(-c2cc3nccc(-c4cc[nH]n4)c3o2)cc(OC)c1OC [Compound C73]	IC50 (BTK): 3 to 50 µM
< 0.3 µM	3 to 50 µM		< 0.3 µM	COc1cc(-c2cc3nccc(-c4ccnc(NCC5CCCNC5)c4)c3o2)cc(OC)c1OC (stereo not shown) [Compound C185]	
				COc1cc(Nc2ncc(F)c(Nc3ccc4c(n3)NC(=O)C(C)(C)O4)n2)cc(OC)c1OC [Compound R406]	efficacy (ACR scores) [2]: ACR scores improvement; tolerability [2]: good tolerability; bone erosion (murine model of RA): significantly reduced; serum cytokine concentrations (murine model of RA): significantly reduced; clinical scores (murine model of RA; orally available): significant improvement
